These results are taken from patent publication US20160108008A1, “Substituted N-(Tetrazol-5-yl)- and N-(Triazol-5-yl)arylcarboxamide Compounds and Their Use as Herbicides” (BASF SE, priority 2013, published 2016).

Format in all cases: in vivo
Experiment [1] deals with Amaranthus retroflexus. In words: greenhouse post-emergence treatment, AMARE. The following applies: scale 0-100. The text has this: (§1) The culture containers used were plastic flowerpots containing loamy sand with approximately 3.0% of humus as the substrate. The seeds of the test plants were sown separately for each species.
(§2) For the post-emergence treatment, the test plants were first grown to a height of 3 to 15 cm, depending on the plant habit, and only then treated with the active ingredients which had been suspended or emulsified in water. For this purpose, the test plants were either sown directly and grown in the same containers, or they were first grown separately as seedlings and transplanted into the test containers a few days prior to treatment.
(§3) Depending on the species, the plants were kept at 10-25° C. or 20-35° C. The test period extended over 2 to 4 weeks. During this time, the plants were tended, and their response to the individual treatments was evaluated.
(§4) Evaluation was carried out using a scale from 0 to 100. 100 means no emergence of the plants, or complete destruction of at least the aerial moieties, and 0 means no damage, or normal course of growth. A good herbicidal activity is given at values of at least 70 and a very good herbicidal activity is given at values of at least 85.
(§5) The plants used in the greenhouse experiments belonged to the following species:
(§6) Following representative compounds of formula I according to Table 9 were used in post-emergence treatments in greenhouse experiments (values labeled with * result from pre-emergence experiments): […]

A further experiment concerns Chenopodium album. In words: greenhouse post-emergence treatment, CHEAL. To be noted: scale 0-100.
From the text: as §1, §2, §3, §4, §5, §6

For another experiment, the system named is Polygonum convolvulus. In words: greenhouse post-emergence treatment, POLCO. The following applies: scale 0-100.
From the text: as §1, §2, §3, §4, §5, §6

A further experiment deals with Agrostis spica-venti. In words: greenhouse pre-emergence treatment, APESV. To be noted: pre-emergence (value labeled *), scale 0-100.
From the text: as §1
(§7) For the pre-emergence treatment, the active ingredients, which had been suspended or emulsified in water, were applied directly after sowing by means of finely distributing nozzles. The containers were irrigated gently to promote germination and growth and subsequently covered with transparent plastic hoods until the plants had rooted. This cover caused uniform germination of the test plants, unless this has been impaired by the active ingredients.
as §3, §4, §5, §6

In the next experiment the test system is Echinochloa crus-galli. In words: greenhouse post-emergence treatment, ECHCG. The following applies: scale 0-100.
From the text: as §1, §2, §3, §4, §5, §6

Experiment [2] deals with Abutilon theophrasti. In words: greenhouse pre-emergence treatment, ABUTH. The following applies: pre-emergence (value labeled *), scale 0-100.
From the text: as §1, §7, §3, §4, §5, §6

The next experiment has as its system Setaria viridis. Briefly: greenhouse post-emergence treatment, SETVI. To be noted: scale 0-100.
From the text: as §1, §2, §3, §4
(§8) The plants used in the greenhouse experiments belonged to the following species: […]

Experiment [3] has as its system Abutilon theophrasti. In words: greenhouse post-emergence treatment, ABUTH. To be noted: 1000 g/ha, scale 0-100.
From the text: as §1, §2, §3, §4, §8

The test system of experiment [4] is Amaranthus retroflexus. Briefly: greenhouse pre-emergence treatment, AMARE. The following applies: pre-emergence (value labeled *), 1000 g/ha; scale 0-100.
From the text: as §1, §7, §3, §4, §5, §6

The next experiment relates to Alopecurus agrestis. In words: greenhouse post-emergence treatment, ALOMY. To be noted: 250 g/ha, scale 0-100.
From the text: as §1, §2, §3, §4, §8

Each structure is given as a SMILES string. Marks after values point to notes of the source that are not given here.

For `CCS(=O)(=O)c1c(Cl)cc(F)c(C(=O)Nc2ncnn2C)c1Cl` [compound 15], the “[%] damage to weed III (AMARE)” value with Amaranthus retroflexus [1] (500 g/ha) amounted to 100%. Further, the “[%] damage to weed VI (CHEAL)” value with Chenopodium album (500 g/ha) came out at 100%. Further, the “[%] damage to weed IX (POLCO)” value with Polygonum convolvulus (500 g/ha) is 98%. Moreover, the “[%] damage to weed IV (APESV)” value with Agrostis spica-venti (500 g/ha) is 98* %.
`CCOc1c(Cl)cc(F)c(C(=O)Nc2nnnn2C)c1Cl` [compound 18]: in the experiment on Amaranthus retroflexus [1] (250 g/ha), the “[%] damage to weed III (AMARE)” value was 85%. In the experiment with Chenopodium album (250 g/ha), the “[%] damage to weed VI (CHEAL)” value came out at 100%. For the same molecule, in the experiment with Echinochloa crus-galli (250 g/ha), the “[%] damage to weed VII (ECHCG)” value turned out to be 98%. In addition, the “[%] damage to weed I (ABUTH)” value in the experiment on Abutilon theophrasti [2] (250 g/ha) is on record as 100* %.
For `CCOc1c(Cl)cc(F)c(C(=O)Nc2nnnn2CCOC)c1Cl` [compound 19] the same measures were 100%, 100%, 100% and 100* %.
As to `CCSc1c(Cl)cc(Cl)c(C(=O)Nc2ncnn2C)c1Cl` [compound 61], the “[%] damage to weed III (AMARE)” value in the experiment on Amaranthus retroflexus [1] (500 g/ha) stood at 100%. The “[%] damage to weed VI (CHEAL)” value in the experiment with Chenopodium album (500 g/ha) amounted to 100%. In addition, in the experiment with Echinochloa crus-galli (500 g/ha), the “[%] damage to weed VII (ECHCG)” value came to 98%. Besides, the “[%] damage to weed IV (APESV)” value in the experiment on Agrostis spica-venti (500 g/ha) is 98* %.
In the case of `CCCn1ncnc1NC(=O)c1c(F)cc(Cl)c(SC)c1Cl` [compound 62], the “[%] damage to weed III (AMARE)” value in the experiment on Amaranthus retroflexus [1] (250 g/ha) is 100%. In addition, the “[%] damage to weed VI (CHEAL)” value in the experiment on Chenopodium album (250 g/ha) is given as 100%. The “[%] damage to weed VII (ECHCG)” value with Echinochloa crus-galli (250 g/ha) was 98%. The “[%] damage to weed IV (APESV)” value in the experiment with Agrostis spica-venti (250 g/ha) is 80* %.
In the case of `COCCn1nnnc1NC(=O)c1c(F)cc(Cl)c([S+](C)[O-])c1Cl` (stereo not drawn) [compound 74], in the experiment with Amaranthus retroflexus [1] (110 g/ha), the “[%] damage to weed III (AMARE)” value is 100%. The “[%] damage to weed VI (CHEAL)” value with Chenopodium album (110 g/ha) came to 100%. Further, in the experiment with Echinochloa crus-galli (110 g/ha), the “[%] damage to weed VII (ECHCG)” value was determined as 100%. Also, the “[%] damage to weed I (ABUTH)” value in the experiment with Abutilon theophrasti [2] (110 g/ha) is on record as 98* %.
With `Cc1c(C(=O)Nc2nnnn2C)cc(F)cc1S(C)(=O)=O` [compound 7], the “[%] damage to weed III (AMARE)” value with Amaranthus retroflexus [1] (500 g/ha) amounted to 100%. In addition, in the experiment with Chenopodium album (500 g/ha), the “[%] damage to weed VI (CHEAL)” value worked out at 100%. Also, the “[%] damage to weed XI (SETVI)” value with Setaria viridis (500 g/ha) was 100%.
As to `CCS(=O)(=O)c1c(Cl)cc(F)c(C(=O)Nc2nnnn2CCOC)c1Cl` [compound 80], the “[%] damage to weed III (AMARE)” value in the experiment with Amaranthus retroflexus [1] (125 g/ha) is 100%. Moreover, the “[%] damage to weed VI (CHEAL)” value in the experiment with Chenopodium album (125 g/ha) is listed as 100%. Moreover, the “[%] damage to weed VII (ECHCG)” value in the experiment on Echinochloa crus-galli (125 g/ha) worked out at 100%. For the same molecule, the “[%] damage to weed I (ABUTH)” value with Abutilon theophrasti [2] (125 g/ha) is 100* %.
With `Cc1c(C(=O)Nc2nnnn2C)cc(F)c(S(C)(=O)=O)c1S(C)(=O)=O` [compound 66], in the experiment with Abutilon theophrasti [3], the “[%] damage to weed I (ABUTH)” value was determined as 100%. For the same molecule, the “[%] damage to weed III (AMARE)” value with Amaranthus retroflexus [1] (1000 g/ha) is 100; %; with Amaranthus retroflexus [4], 100* %. Moreover, the “[%] damage to weed VII (ECHCG)” value with Echinochloa crus-galli (1000 g/ha) stood at 100%.
`COCCOc1ccc(Cl)c(C(=O)Nc2nnnn2C)c1Cl` [compound 86]: the “[%] damage to weed III (AMARE)” value with Amaranthus retroflexus [1] (500 g/ha) amounted to 100%. Further, the “[%] damage to weed VI (CHEAL)” value in the experiment with Chenopodium album (500 g/ha) stood at 100%. Moreover, in the experiment with Echinochloa crus-galli (500 g/ha), the “[%] damage to weed VII (ECHCG)” value amounted to 98%. Moreover, the “[%] damage to weed I (ABUTH)” value with Abutilon theophrasti [2] (500 g/ha) was 65* %. The “[%] damage to weed IV (APESV)” value with Agrostis spica-venti (500 g/ha) is 98* %.
`CCn1nnnc1NC(=O)c1c(F)cc(Cl)c(OCCOC)c1Cl` [compound 71]: in the experiment with Amaranthus retroflexus [1] (250 g/ha), the “[%] damage to weed III (AMARE)” value is recorded as 98%. Further, the “[%] damage to weed VI (CHEAL)” value in the experiment with Chenopodium album (250 g/ha) turned out to be 100%. For the same molecule, the “[%] damage to weed VII (ECHCG)” value in the experiment on Echinochloa crus-galli (250 g/ha) came to 80%. In addition, the “[%] damage to weed I (ABUTH)” value in the experiment with Abutilon theophrasti [2] (250 g/ha) is recorded as 100* %.
Consider `Cn1nnnc1NC(=O)c1c(F)cc(Cl)c([S+](C)[O-])c1Cl` (stereo not drawn) [cpd. 6], for which the “[%] damage to weed II (ALOMY)” value with Alopecurus agrestis was found to be 100%. Besides, in the experiment on Chenopodium album (250 g/ha), the “[%] damage to weed VI (CHEAL)” value was determined as 100%. In the experiment with Setaria viridis (250 g/ha), the “[%] damage to weed XI (SETVI)” value is 100%.
`CCS(=O)(=O)c1c(Cl)cc(F)c(C(=O)Nc2nnnn2C)c1Cl` [compound 13, 2,4-Dichloro-3-ethylsulfonyl-6-fluoro-N-(1-methyltetrazol-5-yl)benzamide]: the “[%] damage to weed III (AMARE)” value in the experiment with Amaranthus retroflexus [1] (250 g/ha) is 100%. The “[%] damage to weed VI (CHEAL)” value with Chenopodium album (250 g/ha) is recorded as 100%. The “[%] damage to weed IX (POLCO)” value in the experiment on Polygonum convolvulus (250 g/ha) is given as 100%. For the same molecule, in the experiment with Abutilon theophrasti [2] (250 g/ha), the “[%] damage to weed I (ABUTH)” value was 100* %.
